Reference: patent US9012678B2, “Processes for the preparation of fesoterodine” (Cadila Healthcare Limited, priority 2010, dated 2015)

Test: Stability study for Fesoterodine Fumarate (description, water by KF, related substances by HPLC on storage)
Type: physicochemical
Procedure: As used herein, the term “stable fesoterodine fumarate” fesoterodine fumarate containing any individual impurities less than 0.15% after exposure to a relative humidity of 60% at 25° for a period of at least three months or after exposure to a relative humidity of 75% at 40° for a period of at least three months
2) High Performance Liquid Chromatography (HPLC) Method for Determination of Impurity X in Fesoterodine Fumarate of formula (1)
• Equipment: Shimadzu LC2010C HPLC system equipped with a wavelength UV-VIS detector or equivalent. • Column: Inertsil ODS-3 (250 mm×4.6 mm, 5 μm), Make: GL Sciences Part No: 5020-01732 • Flow rate: 1.2 mL/minute • Column oven temp: 30° C. • Wavelength: 220 nm • Injection volume: 10 μL • Run time: 60 minutes • Diluent: Premixed buffer and acetonitrile in the volume ratio of 75:25. Preparation of Buffer:
Transfer 1 mL orthophosphoric acid in 1000 mL volumetric flask containing about 500 mL of water and make up the volume with water. Filter through 0.2 μm membrane filter paper.
Weigh accurately and transfer about 25 mg of sample of Fesoterodine Fumarate or Fesoterodine Fumarate (technical) into a 50 mL volumetric flask. Add 5 mL tetrahydrofuran, sonicate to dissolve and make up the volume with diluent. Make fresh two preparations at the time of injection.
Inject sample solutions containing the chromatogram upto the end of gradient. Determine the area of each impurity using suitable integrator.

[1] = 1 Month 2 to 8° C., PSD: D(90) = 10 microns
[2] = 1 Month 2 to 8° C., PSD: D(90) = 270 microns
[3] = 1 Month 25° C. ± 2° C./RH 60% ± 5%, PSD: D(90) = 10 microns
[4] = 1 Month 25° C. ± 2° C./RH 60% ± 5%, PSD: D(90) = 270 microns
[5] = 1 Month 40° C. ± 2° C./RH 75% ± 5%, PSD: D(90) = 10 microns
[6] = 1 Month 40° C. ± 2° C./RH 75% ± 5%, PSD: D(90) = 270 microns
[7] = 2 Months 2 to 8° C., PSD: D(90) = 10 microns
[8] = 2 Months 2 to 8° C., PSD: D(90) = 270 microns
[9] = 2 Months 25° C. ± 2° C./RH 60% ± 5%, PSD: D(90) = 270 microns
[10] = 2 Months 25° C. ± 2° C./RH, PSD: D(90) = 10 microns

CC(C)C(=O)Oc1ccc(CO)cc1[C@H](CCN(C(C)C)C(C)C)c1ccccc1.O=C(O)/C=C/C(=O)O [Fesoterodine Fumarate, isobutyric acid 2-[(R)-3-diisopropylammonium-1-phenylpropyl)-4-(hydroxy-methyl)phenyl ester hydrogen fumarate]
0.06%: Related substance iii) Oxidized (RRT 1.37) [6] | Related substance iv) Any individual impurities [6] | Related substance i) Diol [8] | Related substance v) Total impurities [8]
0.59%: Related substance v) Total impurities [6]
0.05%: Related substance i) Diol [2] | Related substance v) Total impurities [2] | Related substance i) Diol [4] | Related substance v) Total impurities [4]
BQL: Related substance ii) Diester [2] | Related substance iii) Oxidized (RRT 1.37) [2] | Related substance iv) Any individual impurities [2] | Related substance (by HPLC) ii) Diester [3] | Related substance ii) Diester [4] | Related substance iii) Oxidized (RRT 1.37) [4] | Related substance iv) Any individual impurities [4] | Related substance (by HPLC) ii) Diester [5] | Related substance (by HPLC) ii) Diester [7] | Related substance ii) Diester [8] | Related substance iii) Oxidized (RRT 1.37) [8] | Related substance iv) Any individual impurities [8] | Related substance ii) Diester [9] | Related substance iii) Oxidized (RRT 1.37) [9] | Related substance iv) Any individual impurities [9] | Related substance (by HPLC) ii) Diester [10]
0.26 % w/w: Related substance (by HPLC) v) Total impurities [3] | Related substance (by HPLC) v) Total impurities [10]
0.07 % w/w: Related substance (by HPLC) i) Diol [5]
0.28 % w/w: Related substance (by HPLC) v) Total impurities [5]
0.33%: Related substance i) Diol [6]
0.12 % w/w: Water by KF [5]
0.02 % w/w: Related substance (by HPLC) iv) Any individual impurities [3] | Related substance (by HPLC) iv) Any individual impurities [5] | Related substance (by HPLC) iv) Any individual impurities [10]
White: Description [1] | Description [2] | Description [3] | Description [4] | Description [5] | Description [6] | Description [7] | Description [8] | Description [9] | Description [10] | Description (2 Months 40° C. ± 2° C./RH 75% ± 5%, PSD: D(90) = 10 microns)
0.04%: Related substance ii) Diester [6] | Related substance i) Diol [9] | Related substance v) Total impurities [9]
0.15 % w/w: Related substance (by HPLC) iii) Oxidized (RRT 1.37) [3] | Water by KF [3] | Water by KF [4] | Water by KF [9] | Water by KF [10]
0.16 % w/w: Water by KF [1] | Water by KF [2] | Water by KF [7] | Water by KF [8]
0.09 % w/w: Related substance (by HPLC) iii) Oxidized (RRT 1.37) [1] | Related substance (by HPLC) i) Diol [3] | Related substance (by HPLC) iii) Oxidized (RRT 1.37) [7] | Related substance (by HPLC) i) Diol [10]
0.03 % w/w: Related substance (by HPLC) ii) Diester [1] | Related substance (by HPLC) iv) Any individual impurities [1] | Related substance (by HPLC) iv) Any individual impurities [7]
0.06 % w/w: Related substance (by HPLC) i) Diol [1] | Related substance (by HPLC) i) Diol [7]
0.56 % w/w: Water by KF [6]
0.17 % w/w: Related substance (by HPLC) iii) Oxidized (RRT 1.37) [5] | Related substance (by HPLC) iii) Oxidized (RRT 1.37) [10]
0.21 % w/w: Related substance (by HPLC) v) Total impurities [1] | Related substance (by HPLC) v) Total impurities [7]
